Reference: patent US20040157818A1, “Cxcr4-antagonistic drugs composed of nitrogen-containing compound” (priority 2001, published 2004)

How the values were obtained:
[1] = system: ICR mice; assay: Acute toxicity in ICR mice; assay type: in vivo; conditions: 50 mg/kg intraperitoneally twice a day for 4 days; dead mice after 5 days; male ICR mice, three animals per group
Method: The CXCR4-antagonist or the salt thereof of the present invention is intraperitoneally injected in to an ICR mouse ([…]) twice a day for 4 consecutive days, and no lethal case was found after 5 days. Therefore, the conclusion can be drawn that there is no acute toxicity.
7-week old ICR mice (male) (obtained from Charls River Japan Inc) were divided into three-animals for each groups. After domestication-breeding for 1 week, the compound of the coresponding Synthesis Example was dissolved in a physiological salt solution or distilled water and the solution was then intraperitoneally dosed twice a day for 4 days (50 mg/kg in dosage).

[2] = biological target: T1, CXCR4 (Homo sapiens, UniProt P61073); assay: CXCR4-binding inhibition activity (125I-SDF-1α binding to MT-4 cells); conditions: 0.1 μM test material, ligand 125I-SDF-1α, 2 hours under ice cold condition
T1 construct: endogenous in cells; host or cells: MT-4 cells
T1 sequence (P61073 whole entry): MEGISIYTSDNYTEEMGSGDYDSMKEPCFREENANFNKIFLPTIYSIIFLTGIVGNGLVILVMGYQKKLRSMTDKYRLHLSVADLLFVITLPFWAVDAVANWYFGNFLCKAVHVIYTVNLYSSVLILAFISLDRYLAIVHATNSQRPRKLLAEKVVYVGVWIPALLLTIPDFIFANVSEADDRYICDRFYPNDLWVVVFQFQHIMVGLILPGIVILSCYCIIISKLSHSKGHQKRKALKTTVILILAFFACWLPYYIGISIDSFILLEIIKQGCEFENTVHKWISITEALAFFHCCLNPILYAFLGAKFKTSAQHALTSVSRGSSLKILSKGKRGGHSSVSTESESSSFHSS
Method: CXCR4-Binding Inhibition Activity
MT-4 cells (5×10^6/0.2 ml/well) were cultured on a 24-well microtiter plate. After the cells were incubated for 24 hours at 37° C. in a carbon dioxide gas incubator, a culture mediumwas replaced with a buffer solution (RPMI-1640 containing 0.1% BSA). Together with a ligand ^125I-SDF-1α (specific activity: 2,2000 Ci/mmol; DAIICHI PURE CHEMICALS CO. ,LTD. (Tokyo)), various concentrations of test materials were subjected to a binding reaction for 2 hours under ice cold condition.

[3] = system: type-II collagen-induced arthritis mouse; assay: Drug efficacy test on type-II collagen-induced arthritis (CIA) mouse; assay type: in vivo
Method: Drug Efficacy Test of the Compound No. 86 on Type-II Collagen-Induced Arthritis Mouse
Using the type-II collagen-induced mouse arthritis (CIA) model, which was a model of articular rheumatism (RA), the compound No. 86 was tested for drug efficacy.
24 of 6-week-oldmale DBA/l mice (obtained from Charles River Japan, Inc.) were used as test animal and were divided in groups of 12 animals, that is, a test group of and a control group, such that the average weights of the respective groups were almost equal to each other.
An initial-sensitizing antigen solution used was a liquid of adjusted emulsion prepared by dissolving chicken type-II collagen (obtained from Collagen Gijyutu Kensyuukai) in 0.01N acetic acid (4mg/mL) andthenmixingwith an equal amount of Freund's complete adjuvant (manufactured by Difco BRL), and an additional-sensitizing antigen solution used was a liquid of emulsion prepared by dissolving chicken type-II collagen in 0.01N acetic acid (8 mg/mL), and then mixing with an equal amount of Freund's complete adjuvant.
An initial sensitization was performed by endodermic injection of 50 μl of the initial-sensitizing antigen solution (containing 100 μg of chicken type-II collagen) into the tail of the mouse. The additional sensitization was performed after 21 days from the initial sensitization by endodermic injection of 50 μl of the additional-sensitizing antigen solution (containing 200 μg of chicken type-II collagen) into the tail of the mouse.
The compound No. 86, which was provided as a test material, was provided as one at a concentration of 5 mg/mL prepared by dissolving ditartrate thereof in a physiological saline solution. The test material was administered such that the test material was interperitoneally administered once a day for consecutive 17 days from 2 days before the additional sensitization (an amount of administered liquid was 10 mL/kg). In addition, for the control group, the test material was administered by dissolving ditartrate in a physiological saline solution so as to make the concentration of tartaric acid of 1.7 mg/mL because a dosage solvent is ditartrate for the test material compound No. 86.
Amacroscopic observation on extremities after the additional sensitization was performed once a day. A scoring of the macroscopic observation was according to the following criteria and judged on each of extremities with respect to edema of foot. The total of the scores of extremities was provided as an index of the onset of symptoms and pharmacometrics with respect to arthritis. In addition, the total of the numbers of fingers of each extremity on which edema was observed was also used as an index of pharmacometrics.
In addition, the scores in FIG. 6 were defined as follows: […]

Compound	Number of dead mice [1]	inhibition rate (binding-inhibition % at 0.1 μM) [2] [%]	further results
O=C(N[C@@H](CCCNC1CCCc2cccnc21)C(=O)NCc1cccc2ccccc12)c1ccc(CNCc2ncc[nH]2)cc1 (stereo partly drawn) [Compound No. 39, (2S)-2-(4-((N-imidazol-2-ylmethyl)aminomethyl)benzoylamino)-5-(5,6,7,8-tetrahydroquinolin-8-ylamino)valerate 1-naphthalenemethylamide]	0/3	–	–
O=C(N[C@@H](CCCNC1CCCc2cccnc21)C(=O)NCc1cccc2ccccc12)c1ccc(CNCc2ncc[nH]2)c2ccccc12 (stereo partly drawn) [Compound No. 41, (2S)-2-(4-((N-imidazol-2-ylmethyl)aminomethyl)naphthoylamino)-5-(5,6,7,8-tetrahydroquinolin-8-ylamino)valerate 1-naphthalenemethylamide]	0/3	97.9	–
C[C@H](NC(=O)[C@H](CCCNC(=N)N)NC(=O)c1ccc(CNCc2ncc[nH]2)c2ccccc12)c1cccc2ccccc12 [Compound No. 49, N^α-(4-(imidazol-2-ylmethyl)aminomethylnaphthoyl)-L-arginine (1′S)-(1′-(1-naphthyl)ethyl)amide]	0/3	97.8	–
C[C@H](NC(=O)[C@H](CCCNC1CCCc2cccnc21)NC(=O)c1ccc(CNCc2ncc[nH]2)c2ccccc12)c1cccc2ccccc12 (some centres unmarked) [Compound No. 57]	0/3	97.8	–
O=C(N[C@@H](CCCNC1CCCc2cccnc21)C(=O)NCc1cccc2ccccc12)c1ccc(CNCc2ccccn2)cc1 (stereo partly drawn) [Compound No. 65, (2S)-2-(4-(N-2-picolylaminomethyl)benzoylamino)-5-((5,6,7,8-tetrahydroquinolin-8-yl)amino)valerate 1-naphthalenemethylamide]	0/3	75.1	–
C[C@H](NC(=O)[C@H](CCCN=C(N)N)NC(=O)c1ccc(CNCc2ccccn2)cc1)c1cccc2ccccc12 [Compound No. 86, N^α-(4-(N-2-picolylaminomethyl)benzoyl)-L-arginine(1′S)-1′-(1-naphthyl)ethylamide]	0/3	91.4	lesion score of extremities (arthritis score) ([3]; 5 mg/mL, 10 mL/kg intraperitoneally once a day for 17 days from 2 days before additional sensitization, observed 12 days after additional sensitization, vs control group): tended to inhibit a chronological increase; change in animal body weights ([3]; 5 mg/mL, 10 mL/kg intraperitoneally once a day for 17 days, CIA mice): no influence was found; number of edematous fingers (chronological increase) ([3]; 5 mg/mL, 10 mL/kg intraperitoneally once a day for 17 days, observed 12 days after additional sensitization, vs control group): tended to inhibit a chronological increase; increase in number of edematous fingers ([3]; after 12 days from the additional sensitization, vs control group): significantly inhibited
O=C(N[C@@H](CCCNC1CCCc2cccnc21)C(=O)NCCc1c[nH]c2ccccc12)c1ccc(CNCc2ccccn2)c2ccccc12 (stereo partly drawn) [Compound No. 92, (2S)-2-(4-(N-2-picolylaminomethyl)naphthoyl)amino-5-(5,6,7,8-tetrahydroquinolin-8-yl)amino valerate 2-(3-indolyl)ethylamide]	0/3	–	–
Cn1ccnc1CNCc1ccc(C(=O)N[C@@H](CCCNC2CCCc3cccnc32)C(=O)NCc2cccc3ccccc23)cc1 (stereo partly drawn) [Compound No. 96, (2S)-2-((1-methylimidazol-2-ylmethyl)aminomethyl) benzoylamino-5-(5,6,7,8-tetrahydroquinolyl-8-yl)amino valerate 1-naphthalene methyleneamide]	0/3	96.8	–
C[C@H](NC(=O)[C@H](CCCNC(=N)N)NC(=O)c1ccc(CNCc2nccn2C)c2ccccc12)c1cccc2ccccc12 [Compound No. 97, N^α-(4-((N-(1-methylimidazol-2-ylmethyl)amino)methyl)naphthalene-1-carbonyl)-L-arginine(1′S)-1′-(1-naphthyl)ethylamide]	0/3	100.0	–
C[C@H](NC(=O)[C@H](CCCNC(=N)N)NC(=O)c1ccc(CNCc2ccccn2)c2ccccc12)c1cccc2ccccc12 [Compound No. 99, N^α-(4-(N-2-picolylaminomethyl)naphthoyl)-L-arginine(1′S)-1′-(1-naphthyl)ethylamide]	0/3	76.4	–
O=C(N[C@@H](CCCN[C@H]1CCCc2cccnc21)C(=O)NCc1cccc2ccccc12)c1ccc(CNCc2ccccn2)c2ccccc12 [Compound No. 105, (2S)-2-(4-(N-2-picolylaminomethyl)naphthalene-1-carbonyl)amino-5-((8S)-5,6,7,8-tetrahydroquinolin-8-yl)amino valerate 1-naphthylmethylamide]	–	91.9	–
C[C@H](NC(=O)[C@H](CCCNC1CCCc2cccnc21)NC(=O)c1ccc(CNCc2ncc[nH]2)cc1)c1cccc2ccccc12 (some centres unmarked) [Compound No. 106]	0/3	100.0	–
C[C@H](NC(=O)[C@H](CCCNC1CCCc2cccnc21)NC(=O)c1ccc(CNCc2nccn2C)cc1)c1cccc2ccccc12 (some centres unmarked) [Compound No. 107]	0/3	96.5	–
C[C@H](NC(=O)[C@H](CCCNC1=NCCN1)NC(=O)c1ccc(CNCc2ncc[nH]2)cc1)c1cccc2ccccc12 [Compound No. 110, (S)-2-(4-((N-imidazol-2-ylmethyl)aminomethyl)benzoyl)amino-5-(4,5-dihydroimidazol-2-yl)amino valerate(1′S)-1′-(1-naphthyl)ethylamide]	–	75.7	–
C[C@H](NC(=O)[C@H](CCCNC1=NCCCN1)NC(=O)c1ccc(CNCc2ncc[nH]2)cc1)c1cccc2ccccc12 [Compound No. 112, (S)-2-(4-((N-imidazol-2-ylmethyl)aminomethyl)benzoyl)amino-5-(3,4,5,6-tetrahydropyrimidin-2-yl)amino valerate(1′S)-1′-(1-naphthyl)ethylamide]	–	84.2	–
